Assay results from US20080095863A1, “2-PYRROLIDONE DERIVATIVES FOR PRESERVATION OF OPHTHALMIC, OTIC AND NASAL COMPOSITIONS” (Alcon Manufacturing Ltd., priority 2006, published 2008).
Entries after “also recorded” stand apart in the source; their conditions may differ.

Key:
[1] = tested on: Pseudomonas aeruginosa ATCC 9027; experiment: Antimicrobial preservative effectiveness organism challenge test (USP 24 / Ph. Eur. 5.0); format: cell-based; settings: P. aeruginosa, 0.05 w/v % in Table 2 formulation, pH 7.5
Procedure: (§1) Antimicrobial preservative effectiveness as set forth by the examples infra was determined using an organism challenge test according to the methods described in the United States Pharmacopoeia 24 (USP) for category 1A products, and in European Pharmacopoeia 5.0 (Ph. Eur.) for parenteral and ophthalmic preparations. […] The samples were then pulled at specified intervals to determine if the antimicrobial preservative system was capable of killing or inhibiting the propagation of organisms purposely introduced into the formulation. The rate or level of antimicrobial activity determines compliance with the USP and/or Ph. Eur. preservative efficacy standards for the cited categories of preparations.
(§2) Relative to fungi, the USP standards require that the compositions maintain stasis (i.e., no growth) relative to the population of the initial inoculum over the entire 28 day test period. A category 1A product is an injection, or other parenteral including emulsions, otic, sterile nasal products and ophthalmic products made with aqueous bases or vehicles.
(§3) The margin of error in calculating microorganism populations is generally accepted to be +/−0.5 logs. Accordingly, the term “stasis”, as utilized herein relative to the above-discussed USP standards, means that the initial population cannot increase by more than 0.5 log orders, relative to the initial population.
(§4) As cited by Table 1, the Ph. […] Regarding fungi, the Ph.

[2] = tested on: Staphylococcus aureus ATCC 6538; experiment: as above; format: cell-based; settings: S. aureus, pH 7.5
Procedure: as §1, §2, §3, §4

[3] = tested on: Candida albicans ATCC 10231; experiment: as above; format: cell-based
Procedure: as §1, §2, §3, §4

[4] = tested on: Escherichia coli ATCC 8739; experiment: as above; format: cell-based; settings: E. coli, 0.05 w/v % in Table 2 formulation, pH 7.5
Procedure: as §1, §2, §3, §4

[5] = tested on: Aspergillus niger ATCC 16404; experiment: as above; format: cell-based; settings: A. niger, 7 days; 0.05 w/v % in Table 2 formulation, pH 7.5
Procedure: as §1, §2, §3, §4

[6] = tested on: S. aureus, P. aeruginosa, E. coli, C. albicans and A. niger; experiment: Compliance with USP and/or Ph. Eur. preservative efficacy standards (Table 1); format: cell-based; settings: for meeting European Pharmacopoeia 5.0 (Ph. Eur. B) standards as sole preservative: without any other preservative
Procedure: as §1, §2, §3, §4

[7] = cited from earlier work

Structure (SMILES)	Log Order Reductions ([1]; 6 hours)	Log Order Reductions ([1]; 24 hours)	Log Order Reductions ([1]; 7 days)	Log Order Reductions ([2]; 6 hours, 0.05 w/v % in Table 2 formulation (propylene glycol 1.8, phosphate))	Log Order Reductions ([2]; 24 hours, 0.05 w/v % in Table 2 formulation)	Log Order Reductions ([2]; 7 days, 0.05 w/v % in Table 2 formulation)	kill of Candida albicans ([3]; 0.05% composition, in 7 days)	Log Order Reductions ([3]; C. albicans, 7 days, 0.05 w/v % in Table 2 formulation, pH 7.5)	Log Order Reductions ([4]; 6 hours)	Log Order Reductions ([4]; 24 hours)	Log Order Reductions ([4]; 7 days)	Log Order Reductions [5]	kill of both gram-negative and gram-positive bacteria ([6]; 0.05% composition, in six hours)	meeting European Pharmacopoeia 5.0 (Ph. Eur. B) standards as sole preservative [6]	meeting United States Pharmacopoeia 24 standards as sole preservative ([6]; without any other preservative or preservative aid, isotonic pH 7.5 formulation)	soluble in water up to [7]	solubility limited in aqueous solutions to ([7]; aqueous solutions, unless enhanced by another surfactant)
CCCCCCCCN1CCCC1=O [N-Octyl-2-Pyrrolidone, N-octyl-2-pyrrolidone]	4.9 log order	4.9 log order	4.9 log order	4.9 log order	4.9 log order	4.9 log order	essentially complete kill	4.8 log order	5.0 log order	5.0 log order	5.0 log order	0.7 log order	essentially complete kill	provided sufficient preservation to comply; also recorded: effective as a sole preservative	provided sufficient preservation to comply	up to 0.124%	
CCCCCCCCCCCCN1CCCC1=O [N-dodecyl-2-pyrrolidone]														requires a second anti-microbial agent; also recorded: insufficient as a sole agent for preservation		up to 0.002%	≤ 0.002%
